From patent US20250171437A1 (Agios Pharmaceuticals,Inc., priority 2022, published 2025) come the findings set out here.

A value given as a limit tells only on which side of the number the result lay.

One assay deals with T1, human PAH with the R408W mutation (A375 R408W cells) (Homo sapiens, UniProt P00439, R408W).
T1 construct: expressed in transfected cells
T1 sequence (P00439 1-452 R408W): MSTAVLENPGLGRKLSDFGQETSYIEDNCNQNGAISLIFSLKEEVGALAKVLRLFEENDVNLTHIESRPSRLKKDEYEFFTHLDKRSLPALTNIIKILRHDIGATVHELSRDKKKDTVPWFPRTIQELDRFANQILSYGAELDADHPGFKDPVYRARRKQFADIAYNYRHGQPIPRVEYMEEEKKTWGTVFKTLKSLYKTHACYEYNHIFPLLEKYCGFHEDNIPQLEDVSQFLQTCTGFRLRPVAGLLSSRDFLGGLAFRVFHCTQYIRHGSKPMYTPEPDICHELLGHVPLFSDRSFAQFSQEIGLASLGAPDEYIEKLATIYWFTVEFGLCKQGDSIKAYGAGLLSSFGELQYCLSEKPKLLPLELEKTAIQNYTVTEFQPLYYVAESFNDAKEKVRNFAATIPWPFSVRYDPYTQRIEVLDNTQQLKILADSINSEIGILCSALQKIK
The experiment in a line: Cell Based Phenylalanine Flux Assay. The conditions noted are these: A375 R408W cells; 24 hrs with compound, then 20 μM sepiapterin and 800 μM 13C9,15N-Phenylalanine for 4 hours; 13C-Tyrosine by LC-MS; average where tested multiple times. In short, it runs like this: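 LC-MS quantitation of 13C-tyrosine in media gave AC50 values. Stable A375 R408W PAH cells were preincubated 24 h with compound, then fed 800 μM labelled Phe plus 20 μM sepiapterin for 4 h. Dose curves were 10-point, tested in duplicate, averaged over repeat runs.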
In general, AC50 refers to the midpoint of the concentration-response curve, whichever way the signal moves. With `Cn1nc(C2CC2)nc1C(=O)N1CCc2[nH]cnc2[C@@H]1c1nc2cccc(F)c2o1` [Example 498, (R)-(3-cyclopropyl-1-methyl-1H-1,2,4-triazol-5-yl)(4-(7-fluorobenzo[d]oxazol-2-yl)-6,7-dihydro-1H-imidazo[4,5-c]pyridin-5(4H)-yl)methanone], the AC50 fell in the range of 1 to 5 µM.

As for `O=C(c1oc(-c2ccc(C(F)(F)F)cn2)nc1C(F)F)N1CCc2[nH]cnc2[C@H]1c1nc2cccc(F)c2o1` [Example 633, (S)-(4-(difluoromethyl)-2-(5-(trifluoromethyl)pyridin-2-yl)oxazol-5-yl)(4-(7-fluorobenzo[d]oxazol-2-yl)-6,7-dihydro-1H-imidazo[4,5-c]pyridin-5(4H)-yl)methanone], the concentration at half-maximal activity (AC50) is at most 0.5 µM.

Turning to `O=C(c1nnc(-c2ccc(F)cc2)o1)N1CCc2[nH]cnc2[C@H]1c1nc2cc(F)ccc2o1` [Example 27, (S)-(4-(5-fluorobenzo[d]oxazol-2-yl)-6,7-dihydro-1H-imidazo[4,5-c]pyridin-5(4H)-yl)(5-(4-fluorophenyl)-1,3,4-oxadiazol-2-yl)methanone], the AC50 was at most 0.5 µM.

As for `Cn1nc(Cl)cc1C(=O)N1CCc2[nH]cnc2[C@@H]1c1nc2cc(F)ccc2o1` [Example 128, (R)-(3-chloro-1-methyl-1H-pyrazol-5-yl)(4-(5-fluorobenzo[d]oxazol-2-yl)-6,7-dihydro-1H-imidazo[4,5-c]pyridin-5(4H)-yl)methanone], the AC50 fell in the range of 1 to 5 µM.

As to `CC(C)(C)c1ncc(C(=O)N2CCc3[nH]cnc3[C@H]2c2nc3cc(F)ccc3o2)o1` [Example 21, (S)-(2-(tert-butyl)oxazol-5-yl)(4-(5-fluorobenzo[d]oxazol-2-yl)-6,7-dihydro-1H-imidazo[4,5-c]pyridin-5(4H)-yl)methanone], the concentration at half-maximal activity (AC50) was at most 0.5 µM.

As to `O=C(c1ocnc1C(F)(F)F)N1Cc2[nH]cnc2[C@H]1c1nc2ccccc2o1` [Example 944, (S)-(4-(benzo[d]oxazol-2-yl)-4,6-dihydropyrrolo[3,4-d]imidazol-5(1H)-yl)(4-(trifluoromethyl)oxazol-5-yl)methanone], the AC50 lay in the range of 1 to 5 µM.

Consider `O=C(c1oc(C2(O)CCC2)nc1C(F)(F)F)N1CCc2[nH]cnc2[C@H]1c1nc2cc(F)ccc2o1` [Example 585, (S)-(4-(5-fluorobenzo[d]oxazol-2-yl)-6,7-dihydro-1H-imidazo[4,5-c]pyridin-5(4H)-yl)(2-(1-hydroxycyclobutyl)-4-(trifluoromethyl)oxazol-5-yl)methanone], for which the concentration at half-maximal activity (AC50) was at most 0.5 µM.

For the compound `O=C(c1nnc(-c2ccc(F)cn2)o1)N1CCc2[nH]cnc2[C@H]1c1nc2cc(F)ccc2o1` [Example 33, (S)-(4-(5-fluorobenzo[d]oxazol-2-yl)-6,7-dihydro-1H-imidazo[4,5-c]pyridin-5(4H)-yl)(5-(5-fluoropyridin-2-yl)-1,3,4-oxadiazol-2-yl)methanone], the AC50 fell in the range of 0.5 to 1 µM.

In the case of `O=C(c1ocnc1C(F)F)N1CCc2[nH]cnc2[C@@H]1c1nc2c(F)ccc(F)c2o1` [Example 374, (R)-(4-(4,7-difluorobenzo[d]oxazol-2-yl)-6,7-dihydro-1H-imidazo[4,5-c]pyridin-5(4H)-yl)(4-(difluoromethyl)oxazol-5-yl)methanone], the AC50 is at most 0.5 µM.

Consider `COc1cccc2nc([C@@H]3c4nc[nH]c4CCN3C(=O)c3ccnn3C3CC3)oc12` [Example 767, (S)-(1-cyclopropyl-1H-pyrazol-5-yl)(4-(7-methoxybenzo[d]oxazol-2-yl)-6,7-dihydro-1H-imidazo[4,5-c]pyridin-5(4H)-yl)methanone], for which the AC50 is at most 0.5 µM.

Turning to `Cc1ccc2oc([C@@H]3c4nc[nH]c4CCN3C(=O)c3nnc(-c4ccccn4)o3)nc2c1` [Example 97, (S)-(4-(5-methylbenzo[d]oxazol-2-yl)-6,7-dihydro-1H-imidazo[4,5-c]pyridin-5(4H)-yl)(5-(pyridin-2-yl)-1,3,4-oxadiazol-2-yl)methanone], the AC50 is at most 0.5 µM.

Take `Cc1cccc2nc([C@@H]3c4nc[nH]c4CCN3C(=O)c3cc(C(F)F)nn3C)oc12` [Example 735]: the half-maximal activity concentration (AC50) is at most 0.5 µM.

Take `Cc1ccc2oc([C@H]3c4nc[nH]c4CCN3C(=O)c3nnc(-c4cn[nH]c4)o3)nc2c1` [Example 492, (R)-(5-(1H-pyrazol-4-yl)-1,3,4-oxadiazol-2-yl)(4-(5-methylbenzo[d]oxazol-2-yl)-6,7-dihydro-1H-imidazo[4,5-c]pyridin-5(4H)-yl)methanone]: the half-maximal activity concentration (AC50) lay in the range of 1 to 5 µM.

Regarding `Cc1c(F)ccc2oc([C@@H]3c4nc[nH]c4CCN3C(=O)c3ocnc3C(F)F)nc12` [Example 722, (S)-(4-(difluoromethyl)oxazol-5-yl)(4-(5-fluoro-4-methylbenzo[d]oxazol-2-yl)-6,7-dihydro-1H-imidazo[4,5-c]pyridin-5(4H)-yl)methanone], the AC50 is at most 0.5 µM.

Turning to `COc1cccc2nc([C@@H]3c4nc[nH]c4CCN3C(=O)c3cc(C)nn3C)oc12` [Example 821, (S)-(1,3-dimethyl-1H-pyrazol-5-yl)(4-(7-methoxybenzo[d]oxazol-2-yl)-6,7-dihydro-1H-imidazo[4,5-c]pyridin-5(4H)-yl)methanone], the AC50 was at most 0.5 µM.

In the case of `Cc1nc(C(=O)N2CCc3[nH]cnc3[C@H]2c2nc3cccc(F)c3o2)n(C)n1` [Example 495, (S)-(1,3-dimethyl-1H-1,2,4-triazol-5-yl)(4-(7-fluorobenzo[d]oxazol-2-yl)-6,7-dihydro-1H-imidazo[4,5-c]pyridin-5(4H)-yl)methanone], the AC50 was in the range of 1 to 5 µM.

Turning to `COc1cccc2oc([C@H]3c4nc[nH]c4CCN3C(=O)c3ccnn3C(F)F)nc12` [Example 604, (R)-(1-(difluoromethyl)-1H-pyrazol-5-yl)(4-(4-methoxybenzo[d]oxazol-2-yl)-6,7-dihydro-1H-imidazo[4,5-c]pyridin-5(4H)-yl)methanone], the AC50 lay within 1 to 5 µM.

Consider `O=C(c1c(C(F)(F)F)nn2ccccc12)N1CCc2[nH]cnc2[C@H]1c1nc2cc(F)ccc2o1` [Example 915, (S)-(4-(5-fluorobenzo[d]oxazol-2-yl)-6,7-dihydro-1H-imidazo[4,5-c]pyridin-5(4H)-yl)(2-(trifluoromethyl)pyrazolo[1,5-a]pyridin-3-yl)methanone], for which the half-maximal activity concentration (AC50) was at most 0.5 µM.

For `Cc1cccc2nc([C@@H]3c4nc[nH]c4CCN3C(=O)c3cnco3)oc12` [Example 611, (S)-(4-(7-methylbenzo[d]oxazol-2-yl)-6,7-dihydro-1H-imidazo[4,5-c]pyridin-5(4H)-yl)(oxazol-5-yl)methanone], the concentration at half-maximal activity (AC50) was in the range of 0.5 to 1 µM.

Turning to `Cc1nc(C(=O)N2CCc3[nH]cnc3[C@@H]2c2nc3cccc(F)c3o2)n(C)n1` [Example 496, (R)-(1,3-dimethyl-1H-1,2,4-triazol-5-yl)(4-(7-fluorobenzo[d]oxazol-2-yl)-6,7-dihydro-1H-imidazo[4,5-c]pyridin-5(4H)-yl)methanone], the AC50 fell in the range of 1 to 5 µM.

For `COc1cc(F)cc2nc([C@H]3c4nc[nH]c4CCN3C(=O)c3ocnc3C(F)F)oc12` [Example 717, (R)-(4-(difluoromethyl)oxazol-5-yl)(4-(5-fluoro-7-methoxybenzo[d]oxazol-2-yl)-6,7-dihydro-1H-imidazo[4,5-c]pyridin-5(4H)-yl)methanone], the concentration at half-maximal activity (AC50) lay in the range of 0.5 to 1 µM.

With `O=C(c1nnc(-c2ccn(C(F)F)n2)o1)N1CCc2[nH]cnc2[C@@H]1c1nc2cccc(C(F)(F)F)c2o1` [Example 853, (R)-(5-(1-(difluoromethyl)-1H-pyrazol-3-yl)-1,3,4-oxadiazol-2-yl)(4-(7-(trifluoromethyl)benzo[d]oxazol-2-yl)-6,7-dihydro-1H-imidazo[4,5-c]pyridin-5(4H)-yl)methanone], the AC50 fell in the range of 0.5 to 1 µM.

Still in this assay, the particulars now being: A375 cells expressing R408W PAH; 24 hrs with compound, then 20 μM sepiapterin and 800 μM 13C9,15N-Phenylalanine for 4 hours; 13C-Tyrosine by LC-MS; average where tested multiple times.
Turning to `O=C(c1cnc(N2CCC(F)CC2)o1)N1CCc2[nH]cnc2C1c1nc2cc(F)ccc2o1` (stereo not shown), the half-maximal activity concentration (AC50) was at least 5 µM.

Regarding `O=C(c1cnn2cc(N3CCC(O)CC3)ccc12)N1CCc2[nH]cnc2C1c1nc2c(F)cccc2o1` (stereo not shown), the half-maximal activity concentration (AC50) is at least 5 µM.

Take `Cn1ncc(C(=O)N2CCc3[nH]cnc3C2c2nc3cc(F)ccc3o2)c1C(F)F` (stereo not shown): the AC50 was at least 5 µM.

As for `Cc1ccc2oc(C3c4nc[nH]c4CCN3C(=O)c3nnc(C)o3)nc2c1` (stereo not shown), the half-maximal activity concentration (AC50) was 1 to 5 µM.

As for `Cn1nc(C(C)(C)C)nc1C(=O)N1CCc2[nH]cnc2C1c1nc2ccccc2o1` (stereo not shown), the AC50 lay within 1 to 5 µM.

On to `CC(C)(O)c1cc(C(=O)N2CCc3[nH]cnc3C2c2nc3cc(F)ccc3o2)on1` (stereo not shown), for which the AC50 lay within 1 to 5 µM.

Consider `COc1cccc2nc(C3c4nc[nH]c4CCN3C(=O)c3cc(C(C)(C)C)nn3C)oc12` (stereo not shown), for which the half-maximal activity concentration (AC50) was 1 to 5 µM.

As for `CNc1ccc2c(C(=O)N3CCc4[nH]cnc4C3c3nc4cc(F)ccc4o3)cnn2c1` (stereo not shown), the AC50 was at least 5 µM.

In the case of `Cn1nccc1C(=O)N1CCc2[nH]cnc2C1c1nc2cc(F)ccc2o1` (stereo not shown), the AC50 was 1 to 5 µM.

For `Cn1ccc(-c2nnc(C(=O)N3CCc4[nH]cnc4C3c3nc4cc(C(F)(F)F)ccc4o3)o2)n1` (stereo not shown), the AC50 is 1 to 5 µM.

On to `CN(C)Cc1ccc2c(C(=O)N3CCc4[nH]cnc4C3c3nc4cc(F)ccc4o3)cnn2c1` (stereo not shown), for which the AC50 lay within 1 to 5 µM.

In the case of `Cn1nc(C(C)(C)C)cc1C(=O)N1CCc2[nH]cnc2C1c1nc2cccc(F)c2o1` (stereo not shown), the concentration at half-maximal activity (AC50) is 1 to 5 µM.
